In general, IC50 refers to the point on the concentration scale where inhibition reaches its midpoint. Read a high IC50 as weaker potency in that assay.

The record followed here is US20240199587A1, “HETEROCYCLIC COMPOUNDS” (Hoffmann-La Roche Inc., priority 2021, published 2024).

The target of this assay is T1, MAGL (Homo sapiens, UniProt Q99685).
T1 sequence (Q99685 1-303): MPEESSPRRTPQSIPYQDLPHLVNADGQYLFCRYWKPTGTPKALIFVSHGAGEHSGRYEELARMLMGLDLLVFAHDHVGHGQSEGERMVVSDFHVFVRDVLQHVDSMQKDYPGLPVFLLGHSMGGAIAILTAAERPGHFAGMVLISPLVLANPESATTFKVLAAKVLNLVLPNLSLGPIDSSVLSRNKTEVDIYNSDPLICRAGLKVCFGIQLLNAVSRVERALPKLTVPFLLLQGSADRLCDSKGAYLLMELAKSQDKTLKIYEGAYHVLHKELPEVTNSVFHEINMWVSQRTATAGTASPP
The assay is described as follows: 2-AG assay (MAGL inhibitory activity, hydrolysis of 2-arachidonoylglycerol to arachidonic acid followed by mass spectrometry). Type of assay: biochemical. To be noted: 8 μM 2-arachidonoylglycerol, 15 min pre-incubation, 30 min incubation at RT, RapidFire MS readout. In short, it runs like this: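 Human MAGL ([…] final) pre-incubated 15 min at RT with compound in 50 mM TRIS, 1 mM EDTA, 0.01% Tween-20, 2.5% DMSO; 8 μM 2-AG then added for 30 min at RT. Acetonitrile quench with d8-arachidonic acid; arachidonic acid measured by RapidFire SPE–MS/MS, activity from arachidonic acid/d8 ratio.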
Regarding `CC(C)(C)c1nc(-c2ccc(C(=O)N3CC4(CC(n5cnc(C6CCC6)n5)C4)C3)cc2)no1` [Example 90, [4-(5-tert-butyl-1,2,4-oxadiazol-3-yl)phenyl]−[6-(3-cyclobutyl-1,2,4-triazol-1-yl)-2-azaspiro[3.3]heptan-2-yl]methanone], half-maximal inhibition (IC50) was put at 4 nM.

As for `O=C(N1CC(C#Cc2ccc(OC(F)F)cc2)C1)N1CC2(CC(n3cnc(C4CC4)n3)C2)C1` [Example 92, [6-(3-cyclopropyl-1,2,4-triazol-1-yl)-2-azaspiro[3.3]heptan-2-yl]-[3-[2-[4-(difluoromethoxy)phenyl]ethynyl]azetidin-1-yl]methanone], the IC50 amounted to 11.7 nM.

Regarding `O=C(N1CC(Oc2cccc(C3CC3)c2Cl)C1)N1CC2(CC(n3cnc(C4CC4)n3)C2)C1` [Example 94, (3-(2-chloro-3-cyclopropylphenoxy)azetidin-1-yl)(6-(3-cyclopropyl-1H-1,2,4-triazol-1-yl)-2-azaspiro[3.3]heptan-2-yl)methanone], the IC50 was found to be 0.2 nM.

Compound `O=C(N1CC(Oc2ccc(Cl)c(C3CC3)c2)C1)N1CC2(CC(n3cnc(C4CC4)n3)C2)C1` [Example 95, (3-(4-chloro-3-cyclopropylphenoxy)azetidin-1-yl)(6-(3-cyclopropyl-1H-1,2,4-triazol-1-yl)-2-azaspiro[3.3]heptan-2-yl)methanone] showed an IC50 of 1.2 nM.

For the compound `O=C(N1CC(Oc2ccc(C(F)(F)F)cc2F)C1)N1CC2(CC(n3cnc(C4CC4)n3)C2)C1` [Example 96, (6-(3-cyclopropyl-1H-1,2,4-triazol-1-yl)-2-azaspiro[3.3]heptan-2-yl)(3-(2-fluoro-4-(trifluoromethyl)phenoxy)azetidin-1-yl)methanone], inhibition was half-maximal at 2.7 nM (IC50).

For the compound `Cc1ccc(OC2CN(C(=O)N3CC4(CC(n5cnc(C6CC6)n5)C4)C3)C2)c(Cl)c1` [Example 97, (3-(2-chloro-4-methylphenoxy)azetidin-1-yl)(6-(3-cyclopropyl-1H-1,2,4-triazol-1-yl)-2-azaspiro[3.3]heptan-2-yl)methanone], half-maximal inhibition (IC50) required 3.4 nM.

In turn, `O=C(N1CC(Oc2ccc(Cl)cc2Cl)C1)N1CC2(CC(n3cnc(C4CC4)n3)C2)C1` [Example 98, (6-(3-cyclopropyl-1H-1,2,4-triazol-1-yl)-2-azaspiro[3.3]heptan-2-yl)(3-(2,4-dichlorophenoxy)azetidin-1-yl)methanone] came in with an IC50 of 2.8 nM.

`O=C(N1CC(Oc2ccc(Cl)cc2F)C1)N1CC2(CC(n3cnc(C4CC4)n3)C2)C1` [Example 99, (3-(4-chloro-2-fluorophenoxy)azetidin-1-yl)(6-(3-cyclopropyl-1H-1,2,4-triazol-1-yl)-2-azaspiro[3.3]heptan-2-yl)methanone] displayed an IC50 of 9.5 nM.

As to `Cc1ccc(OC2CN(C(=O)N3CC4(CC(n5cnc(C6CC6)n5)C4)C3)C2)c(Cl)n1` [Example 100, (3-((2-chloro-6-methylpyridin-3-yl)oxy)azetidin-1-yl)(6-(3-cyclopropyl-1H-1,2,4-triazol-1-yl)-2-azaspiro[3.3]heptan-2-yl)methanone], the midpoint of inhibition, the IC50, lay at 79.9 nM.

Compound `O=C(N1CC(OCc2ccc(C(F)(F)F)cc2)C1)N1CC2(CC(n3cnc(C4CC4)c3)C2)C1` [Example 101, [6-(4-cyclopropylimidazol-1-yl)-2-azaspiro[3.3]heptan-2-yl]-[3-[[4-(trifluoromethyl)phenyl]methoxy]azetidin-1-yl]methanone] yielded an IC50 of 42.1 nM.

For `O=C(N1CC(OCc2ccc(C(F)(F)F)cc2F)C1)N1CC2(CC(n3cnc(C4CC4)c3)C2)C1` [Example 102, [6-(4-cyclopropylimidazol-1-yl)-2-azaspiro[3.3]heptan-2-yl]-[3-[[2-fluoro-4-(trifluoromethyl)phenyl]methoxy]azetidin-1-yl]methanone], half-maximal inhibition (IC50) required 51.4 nM.

`O=C(N1CC(OCc2ccc(C(F)(F)F)c(F)c2)C1)N1CC2(CC(n3cnc(C4CC4)c3)C2)C1` [Example 103, [6-(4-cyclopropylimidazol-1-yl)-2-azaspiro[3.3]heptan-2-yl]-[3-[[3-fluoro-4-(trifluoromethyl)phenyl]methoxy]azetidin-1-yl]methanone] showed a concentration for half-maximal inhibition (IC50) of 9.9 nM.

Consider `O=C(N1CC(OCc2ccc(S(F)(F)(F)(F)F)cc2)C1)N1CC2(CC(n3cnc(C4CC4)c3)C2)C1` [Example 104, [6-(4-cyclopropylimidazol-1-yl)-2-azaspiro[3.3]heptan-2-yl]-[3-[[4-(pentafluoro-λ^6-sulfanyl)phenyl]methoxy]azetidin-1-yl]methanone], for which the IC50 came to 9.7 nM.

As to `O=C(N1CC(OCc2ccc(S(F)(F)(F)(F)F)cc2F)C1)N1CC2(CC(n3cnc(C4CC4)c3)C2)C1` [Example 105, [6-(4-cyclopropylimidazol-1-yl)-2-azaspiro[3.3]heptan-2-yl]-[3-[[2-fluoro-4-(pentafluoro-λ^6-sulfanyl)phenyl]methoxy]azetidin-1-yl]methanone], inhibition was half-maximal at 3.9 nM (IC50).

On to `Cc1ccc(COC2CN(C(=O)N3CC4(CC(n5cnc(C6CC6)c5)C4)C3)C2)cc1C(F)(F)F` [Example 106, [6-(4-cyclopropylimidazol-1-yl)-2-azaspiro[3.3]heptan-2-yl]-[3-[[4-methyl-3-(trifluoromethyl)phenyl]methoxy]azetidin-1-yl]methanone], for which the IC50 worked out at 4.1 nM.

On to `O=C(N1CC(C#Cc2ccccc2C(F)F)C1)N1CC2(CC(n3cnc(C4CC4)n3)C2)C1` [Example 107, [6-(3-cyclopropyl-1,2,4-triazol-1-yl)-2-azaspiro[3.3]heptan-2-yl]-[3-[2-[2-(difluoromethyl)phenyl]ethynyl]azetidin-1-yl]methanone], for which it took 4.7 nM to reach half-maximal inhibition (IC50).

Take `O=C(N1CC(OCc2ccc(Cl)cc2F)C1)N1CC2(CC(n3cnc(C4CC4)c3)C2)C1` [Example 108, [3-[(4-chloro-2-fluoro-phenyl)methoxy]azetidin-1-yl]-[6-(4-cyclopropylimidazol-1-yl)-2-azaspiro[3.3]heptan-2-yl]methanone]: the IC50 was determined as 25 nM.

Take `O=C(N1CC(OCc2ccc(F)cc2Cl)C1)N1CC2(CC(n3cnc(C4CC4)c3)C2)C1` [Example 109, [3-[(2-chloro-4-fluoro-phenyl)methoxy]azetidin-1-yl]-[6-(4-cyclopropylimidazol-1-yl)-2-azaspiro[3.3]heptan-2-yl]methanone]: the IC50 was 63.5 nM.

Turning to `O=C(N1CC(OCc2ccc(F)cc2F)C1)N1CC2(CC(n3cnc(C4CC4)c3)C2)C1` [Example 110, [6-(4-cyclopropylimidazol-1-yl)-2-azaspiro[3.3]heptan-2-yl]-[3-[(2,4-difluorophenyl)methoxy]azetidin-1-yl]methanone], the IC50 was 65.8 nM.

In the case of `N#Cc1ccc(OC2CC3(C2)CN(C(=O)N2CC4(CC(n5cnc(C6CC6)n5)C4)C2)C3)c(F)c1` [Example 111, 4-[[2-[6-(3-cyclopropyl-1,2,4-triazol-1-yl)-2-azaspiro[3.3]heptane-2-carbonyl]-2-azaspiro[3.3]heptan-6-yl]oxy]-3-fluoro-benzonitrile], the IC50 was found to be 4.3 nM.

`O=C(N1C[C@H]2C[C@H](Oc3ccc(OC(F)F)cc3F)C[C@H]2C1)N1CC2(CC(n3cnc(C4CC4)n3)C2)C1` [Example 112, [6-(3-cyclopropyl-1,2,4-triazol-1-yl)-2-azaspiro[3.3]heptan-2-yl]−[rac-(3aS,6aR)-5-[4-(difluoromethoxy)-2-fluoro-phenoxy]-3,3a,4,5,6,6a-hexahydro-1H-cyclopenta[c]pyrrol-2-yl]methanone]: the midpoint of inhibition, the IC50, lay at 6 nM.

Regarding `O=C(N1C[C@H]2C[C@H](Oc3ccc(C(F)(F)F)cc3)C[C@H]2C1)N1CC2(CC(n3cnc(C4CC4)n3)C2)C1` [Example 113, [6-(3-cyclopropyl-1,2,4-triazol-1-yl)-2-azaspiro[3.3]heptan-2-yl]-[rac-(3aS,6aR)-5-[4-(trifluoromethyl)phenoxy]-3,3a,4,5,6,6a-hexahydro-1H-cyclopenta[c]pyrrol-2-yl]methanone], the IC50 stood at 4.8 nM.

Compound `N#Cc1cc(C(F)(F)F)ccc1O[C@H]1C[C@@H]2CN(C(=O)N3CC4(CC(n5cnc(C6CC6)n5)C4)C3)C[C@@H]2C1` [Example 114, 2-[[rac-(3aS,6aR)-2-[6-(3-cyclopropyl-1,2,4-triazol-1-yl)-2-azaspiro[3.3]heptane-2-carbonyl]-3,3a,4,5,6,6a-hexahydro-1H-cyclopenta[c]pyrrol-5-yl]oxy]-5-(trifluoromethyl) benzonitrile] displayed an IC50 of 10.4 nM.

For the compound `O=C(N1C[C@H]2C[C@H](Oc3ccc(C(F)(F)F)c(Cl)c3)C[C@H]2C1)N1CC2(CC(n3cnc(C4CC4)n3)C2)C1` [Example 115, [6-(3-cyclopropyl-1,2,4-triazol-1-yl)-2-azaspiro[3.3]heptan-2-yl]-[rac-(3aS,6aR)-5-[3-chloro-4-(trifluoromethyl)phenoxy]-3,3a,4,5,6,6a-hexahydro-1H-cyclopenta[c]pyrrol-2-yl]methanone], the IC50 was 2.4 nM.

On to `COc1cc(C(F)(F)F)ccc1O[C@H]1C[C@@H]2CN(C(=O)N3CC4(CC(n5cnc(C6CC6)n5)C4)C3)C[C@@H]2C1` [Example 116, [6-(3-cyclopropyl-1,2,4-triazol-1-yl)-2-azaspiro[3.3]heptan-2-yl]-[rac-(3aS,6aR)-5-[2-methoxy-4-(trifluoromethyl)phenoxy]-3,3a,4,5,6,6a-hexahydro-1H-cyclopenta[c]pyrrol-2-yl]methanone], for which 2.7 nM corresponded to half-maximal inhibition (IC50).
